Patent US20240368125A1, “NOVEL PYRAZINYL-TRIAZOLE COMPOUNDS AS PESTICIDES” (Bayer Aktiengesellschaft, priority 2021, published 2024)

Key:
Format in all cases: in vivo
[1] = system: fall armyworm larvae (Spodoptera frugiperda); experiment: Spodoptera frugiperda spray test (SPODFR); settings: in Zea mays, 168 h
Method: Spodoptera frugiperda—Spray Test
Solvent: 78.0 parts by weight acetone • 1.5 parts by weight dimethylformamide
(§1) Emulsifier: alkylarylpolyglycol ether
(§2) To produce a suitable preparation of active compound, 1 part by weight of active compound is mixed with the stated amount of solvents and is diluted with water, containing an emulsifier concentration of 1000 ppm, to the desired concentration. Further test concentrations are prepared by dilution with emulsifier containing water.
Maize (Zea mays) leaf sections are sprayed with a preparation of the active ingredient of the desired concentration. Once dry, the leaf sections are infested with fall armyworm larvae (Spodoptera frugiperda).
After 7 days mortality in % is determined. 100% means all caterpillars have been killed and 0% means none of the caterpillars have been killed.
Spodoptera frugiperda—Spray Test (SPODFR
After the specified period of time, mortality in % is determined. 100% means all caterpillars have been killed and 0% means none of the caterpillars have been killed.

[2] = system: Rhipicephalus (Boophilus) microplus larvae (strain Parkhurst, resistant against synthetic pyrethroids); experiment: Rhipicephalus (Boophilus) microplus in-vitro contact test, larval cattle tick; settings: 1 μg/cm^2 (=100 g/ha), after 48 hours; for pest or weed control at 1 µg/cm2: Rhipicephalus microplus, read-out: efficacy (larvae dead or moribund)
Method: Rhipicephalus (Boophilus) Microplus—In-Vitro Contact Tests Larval Cattle Tick (Strain Parkhurst, Resistant Against Synthetic Pyrethroids
(§3) 9 mg compound is solved in 1 mL acetone and diluted with acetone to the desired concentration. 250 μL of the test solution is filled in 25 mL glass test tubes and homogeneously distributed on the inner walls by rotation and tilting on a shaking device (2 h at 30 rpm). With a compound concentration of 900 ppm, an inner surface of 44.7 cm^2 and a homogeneous distribution, a dose of 5 μg/cm^2 is achieved.
After the solvent has evaporated, each test tube is filled with 20-50 cattle tick larvae (Rhipicephalus microplus), closed with a perforated lid and incubated in a horizontal position at 85% relative humidity and 27° C. in an incubator. After 48 hours efficacy is determined. The larvae are patted on the ground of the tubes and negative geotactic behavior is recorded.

[3] = system: adult brown dog ticks (Rhipicephalus sanguineus); experiment: Rhipicephalus sanguineus in-vitro contact test, adult brown dog ticks; settings: 1 μg/cm^2 (=100 g/ha), after 48 hours; for pest or weed control at 1 µg/cm2, 100 g/ha: Rhipicephalus sanguineus, read-out: efficacy (ticks dead or moribund)
Method: Rhipicephalus sanguineus—In-Vitro Contact Tests with Adult Brown Dog Ticks
as §3
(§4) After the solvent has evaporated, each test tube is filled with 5-10 adult brown dog ticks (Rhipicephalus sanguineus), closed with a perforated lid and incubated in a lying position at room temperature and relative humidity. After 48 hours efficacy is determined. The ticks are patted on the ground of the tubes and are incubated on a heating plate at 45-50° C. for at most 5 minutes. Immotile or uncoordinated moving ticks, which are not able to escape the heat by climbing upwards, are marked as dead or moribund.
An efficacy of 100% means all ticks are dead or moribund; 0% means no ticks are dead or moribund.

[4] = system: larvae of the banded cucumber beetle (Diabrotica balteata); experiment: Diabrotica balteata spray test; settings: 100 g/ha (=32 μg/well), wheat seeds, after 7 days
Method: Diabrotica balteata—Spray Test
Solvent: 78.0 parts by weight of acetone • • 1.5 parts by weight of dimethylformamide
as §1
as §2, with “solvent,” for “solvents”, “and the concentrate” for “and”
Soaked wheat seeds (Triticum aestivum) are placed in a multiple well plate filled with agar and some water and are incubated for 1 day to germinate (5 seeds per well). The germinated wheat seeds are sprayed with a test solution containing the desired concentration of the active ingredient. Afterwards each unit is infected with 10-20 larvae of the banded cucumber beetle (Diabrotica balteata).
After 7 days efficacy in % is determined. 100% means all the seedlings have grown up like in the untreated, uninfected control; 0% means none of the seedlings have grown.

[5] = system: adult cat fleas (Ctenocephalides felis); experiment: Ctenocephalides felis in-vitro contact test, adult cat flea; settings: 1 μg/cm^2 (=100 g/ha), after 48 hours
Method: Ctenocephalides Felis—In-Vitro Contact Tests Adult Cat Flea
as §3
as §4, with “cat fleas (Ctenocephalides felis),” for “brown dog ticks (Rhipicephalus sanguineus),”, “fleas” for “ticks”, “fleas,” for “ticks,”
An efficacy of 100% means all fleas are dead or moribund; 0% means no fleas are dead or moribund.

SMILES | mortality at 100 g/ha [1] | pest or weed control at 1 µg/cm2 [2] | pest or weed control at 1 µg/cm2, 100 g/ha [3] | efficacy (larvae dead or moribund) [2] | efficacy (seedlings grown) [4] | efficacy (ticks dead or moribund) [3] | efficacy (fleas dead or moribund) [5] | pest or weed control at 1 µg/cm2 ([5]; Ctenocephalides felis, read-out: efficacy (fleas dead or moribund))
CCNC(=O)c1cnc(-n2nc(C)nc2[C@H](C)NC(=O)c2cc(C(F)(F)F)cc(C(F)(F)F)c2)cn1 [Example I-013] | 100% | 100% | 100% | – | – | – | – | –
Cc1nc([C@H](C)NC(=O)c2cc(OC(F)(F)F)cc(OC(F)(F)F)c2)n(-c2cnc(C(=O)N(C)C)cn2)n1 [Example I-037] | – | – | – | 100% | 100% | 100% | 100% | –
CCNC(=O)c1cnc(-n2nc(C)nc2[C@H](C)NC(=O)c2cc(OC(F)(F)F)cc(OC(F)(F)F)c2)cn1 [Example I-035] | 100% | 100% | – | – | – | – | – | –
C[C@H](NC(=O)c1cc(OC(F)(F)F)cc(OC(F)(F)F)c1)c1ncnn1-c1cnc(C(=O)N(C)C)cn1 [Example I-025] | – | – | – | 100% | 100% | 100% | 100% | –
C[C@H](NC(=O)c1cc(OC(F)(F)F)cc(OC(F)(F)F)c1)c1ncnn1-c1cnc(C(N)=O)cn1 [Example I-029] | 100% | 100% | 100% | – | – | – | – | 100%
CNC(=O)c1cnc(-n2nc(C)nc2[C@H](C)NC(=O)c2cc(OC(F)(F)F)cc(C3CC3)c2)cn1 [Example I-045] | – | – | – | 100% | 100% | 100% | 100% | –
C[C@H](NC(=O)c1cc(OC(F)(F)F)cc(OC(F)(F)F)c1)c1ncnn1-c1cnc(C(=O)NC2CC2)cn1 [Example I-024] | – | – | – | 100% | 100% | 100% | – | –
Cc1nc([C@H](C)NC(=O)c2cc(OC(F)(F)F)cc(C3(C#N)CC3)c2)n(-c2cnc(C(=O)N(C)C)cn2)n1 [Example I-055] | – | – | – | 100% | – | 80% | 100% | –
CCN(C)C(=O)c1cnc(-n2nc(C)nc2[C@H](C)NC(=O)c2cc(OC(F)(F)F)cc(OC(F)(F)F)c2)cn1 [Example I-038] | – | – | – | 100% | 100% | 100% | 100% | –
C[C@H](NC(=O)c1cc(OC(F)(F)F)cc(OC(F)(F)F)c1)c1nc(C2CC2)nn1-c1cnc(C(=O)N(C)C)cn1 [Example I-027] | 83% | 100% | – | – | – | – | – | –
Cc1nc([C@H](C)NC(=O)c2cc(OC(F)(F)F)cc(S(C)(=O)=O)c2)n(-c2cnc(C(=O)N(C)C3CC3)cn2)n1 [Example I-040] | – | – | – | 100% | – | 100% | 100% | –
Cc1nc([C@H](C)NC(=O)c2cc(OC(F)(F)F)cc(C3(C)CC3)c2)n(-c2cnc(C(=O)N(C)C)cn2)n1 [Example I-053] | – | – | – | 100% | – | 100% | 80% | –
